Measurements taken from patent publication US20240082235A1, “METHOD FOR TREATING OR INHIBITING CYTOMEGALOVIRUS INFECTION USING SMALL MOLECULES TARGETING PROTEIN PHOSPHATASE 1” (HOWARD UNIVERSITY, priority 2020, published 2024).

Experiments:
PP1-cdNIPP1 interaction = biological target: T1, PP1-cdNIPP1 interaction (Homo sapiens, UniProt P62136); assay: Split NanoBit protein:protein interaction assay, WT PP1 with WT cdNIPP1; assay type: binding; conditions: FIG. 4B
T1 construct: NanoBiT large bit (LgBiT)
T1 sequence (P62136 whole entry): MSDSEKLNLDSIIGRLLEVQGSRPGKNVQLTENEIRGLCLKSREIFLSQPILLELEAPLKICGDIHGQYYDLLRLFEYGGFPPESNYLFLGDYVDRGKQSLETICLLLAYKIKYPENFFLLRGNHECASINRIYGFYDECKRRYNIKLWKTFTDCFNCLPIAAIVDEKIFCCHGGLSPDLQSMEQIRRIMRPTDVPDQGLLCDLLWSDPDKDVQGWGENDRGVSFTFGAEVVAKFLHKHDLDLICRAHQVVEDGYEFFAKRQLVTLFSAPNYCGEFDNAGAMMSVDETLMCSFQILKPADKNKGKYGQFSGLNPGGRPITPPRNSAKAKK

[1] = biological target: T2, PP1-cdNIPP1 RATA interaction (Homo sapiens, UniProt P62136); assay: Split NanoBit protein:protein interaction assay, WT PP1 with RVxF-mutant cdNIPP1; assay type: binding; conditions: FIG. 4B, cdNIPP1 with RVxF mutation
T2 construct: NanoBiT large bit (LgBiT)
T2 sequence (P62136 whole entry): as above

CMV = assay: Plaque assay of human foreskin fibroblasts infected with CMV; assay type: cell-based, human cytomegalovirus; conditions: percentage compared to untreated control, FIG. 5A
[2] = test system: CMV immediate early proteins; assay: Expression of CMV immediate early proteins in infected cells; assay type: cell-based, human cytomegalovirus; conditions: FIG. 5B
[3] = test system: CMV IE1, IE2 and UL32 mRNA; assay: Viral mRNA expression by RT-qPCR in infected human foreskin fibroblasts; assay type: cell-based, human cytomegalovirus; conditions: fold-change compared to infected cells treated with vehicle only, FIG. 5C
PP1 = PP1 (Homo sapiens, UniProt P62136); conditions: SPR; Lin et al. 2017; read-out: KD of binding to PP1; cited from earlier work
Sequence of PP1 (P62136 whole entry): as above

[4] = biological target: PP1 with peptides containing an RVxF sequence (Homo sapiens, UniProt P62136); conditions: in vitro; Ammosova et al. 2012, 2014; cited from earlier work
Sequence of PP1 with peptides containing an RVxF sequence (P62136 whole entry): as above

CCNC(=O)NC(=O)C(C)OC(=O)c1c2c(nc3ccccc13)/C(=C/c1ccc(OC)c(OC)c1)CC2 (stereo not shown) [1E7-03]
Effect on PP1-cdNIPP1 interaction (PP1-cdNIPP1 interaction): inhibited the PP1-cdNIPP1 interaction | Effect on PP1-cdNIPP1 RATA interaction [1]: did not have an effect | Inhibition of CMV replication (CMV): concentration-dependent inhibition of CMV replication | Expression of CMV immediate early proteins [2]: reduced | Viral mRNA expression (IE1, IE2, UL32) [3]: no effect on viral transcription | Kd (PP1): 6.2 µM | Interaction of PP1 with peptides containing an RVxF sequence [4]: disrupted the interaction of PP1 with peptides containing an RVxF sequence
